Data: patent publication US9273028B2, “Heterocyclic tyrosine kinase inhibitors” (Biogen MA Inc., priority 2010, dated 2016)

Biological target: T1, BTK (Homo sapiens, UniProt Q06187)
T1 construct: purchased Upstate 14-552
Experiment: In vitro BTK kinase assay (BTK-POLYGAT-LS)
Format: biochemical
Details: IC50 (10 uM ATP)
Procedure: In vitro BTK Kinase Assay
The purpose of the BTK in vitro assay is to determine compound potency against BTK through the measurement of IC50. […] For a typical assay, a 24 μL aliquot of a ATP/peptide master mix (final concentration; ATP 10 μM, polyGAT 100 nM) in kinase buffer (10 mM Tris-HCl pH 7.5, 10 mM MgCl2, 200 μM Na3PO4, 5 mM DTT, 0.01% Triton X-100, and 0.2 mg/ml casein) is added to each well. […] The assay is incubated for 30 minutes before being stopped with 28 μL of a 50 mM EDTA solution. […] The plate is covered and incubated for 45 minutes at room temperature.

T1 sequence (Q06187 whole entry): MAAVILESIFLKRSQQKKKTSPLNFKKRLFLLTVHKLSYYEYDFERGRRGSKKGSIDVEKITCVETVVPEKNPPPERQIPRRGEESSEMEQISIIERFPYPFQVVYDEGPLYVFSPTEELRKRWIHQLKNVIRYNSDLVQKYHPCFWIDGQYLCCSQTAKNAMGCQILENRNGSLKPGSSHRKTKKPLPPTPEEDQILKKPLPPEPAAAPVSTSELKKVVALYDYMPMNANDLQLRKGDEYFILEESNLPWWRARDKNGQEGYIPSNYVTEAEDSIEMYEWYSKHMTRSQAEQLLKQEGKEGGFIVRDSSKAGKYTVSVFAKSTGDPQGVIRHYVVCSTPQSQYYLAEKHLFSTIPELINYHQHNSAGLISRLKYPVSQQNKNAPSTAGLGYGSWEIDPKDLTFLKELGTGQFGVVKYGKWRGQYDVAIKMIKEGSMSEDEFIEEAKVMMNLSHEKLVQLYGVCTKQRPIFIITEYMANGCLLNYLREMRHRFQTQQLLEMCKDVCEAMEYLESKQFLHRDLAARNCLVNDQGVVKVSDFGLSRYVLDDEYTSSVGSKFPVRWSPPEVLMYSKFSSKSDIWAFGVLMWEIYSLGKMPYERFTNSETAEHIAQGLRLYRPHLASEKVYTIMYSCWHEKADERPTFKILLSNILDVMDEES

| Compound | IC50 |
| --- | --- |
| CC1C(Nc2ncnc3[nH]ccc23)CCCN1C(=O)CNc1cc(Cl)cc(C(F)(F)F)c1 (stereo not drawn) [Compound 80] | < 100 nM |
| CN(c1ncnc2[nH]ccc12)[C@@H]1CCCN(C(=O)CNc2cc(F)cc(Cl)c2)C1 [Compound 165] | 100 to 999 nM |
| CN(c1ncnc2[nH]ccc12)[C@H]1CCCN(C(=O)CNc2cc(Cl)cc(C(F)(F)F)c2)C1 [Compound 142] | 100 to 999 nM |
| CC(C)CN(CC(C)C)S(=O)(=O)c1ccccc1NCC(=O)N1CCC[C@@H](Nc2ncnc3[nH]ccc23)C1 [Compound 218] | 100 to 999 nM |
| O=C(CNc1cc(Cl)cc(Cl)c1)N1CC(Nc2ncnc3[nH]ccc23)Cc2ccccc21 (stereo not drawn) [Compound 190] | 100 to 999 nM |
| O=C(CNc1cc(F)cc(C(F)(F)F)c1)N1CCC[C@H](Nc2ncnc3[nH]ncc23)C1 [Compound 177] | 1000 to 10000 nM |
| CC1C(Nc2ncnc3[nH]ncc23)CCCN1C(=O)CNc1ccccc1S(=O)(=O)c1ccccc1 (stereo not drawn) [Compound 63] | < 100 nM |
| Nc1cc(N2CCC3CCN(C(=O)CNc4cc(Cl)cc(Cl)c4)CC32)ncn1 (stereo not drawn) [Compound 159] | < 100 nM |
| C[C@@H]1C[C@H]2CCN(C(=O)CNc3cc(Cl)cc(Cl)c3)C[C@H]2N1c1ncnc2[nH]ccc12 [Compound 47] | < 100 nM |
| O=C1C(Nc2cc(F)cc(Cl)c2)CC2CCC(Nc3ncnc4[nH]ccc34)CN12 (stereo not drawn) [Compound 53] | 1000 to 10000 nM |
| CN(c1ncnc2[nH]ncc12)[C@H]1CCCN(C(=O)CNc2cc(F)cc(Cl)c2)C1 [Compound 146] | 1000 to 10000 nM |
| O=C(CNc1cc(Cl)cc(Cl)c1)N1CCCC(N(CCN2CCOCC2)c2ncnc3[nH]ccc23)C1 (stereo not drawn) [Compound 86] | 100 to 999 nM |
| CC1C(Nc2ncnc3[nH]ccc23)CCCN1C(=O)CNc1ccccc1S(=O)(=O)N1CCCCC1 (stereo not drawn) [Compound 66] | < 100 nM |
| O=C(CNc1cc(Cl)cc(Cl)c1)N1CC[C@@H](Nc2ncnc3[nH]ncc23)C1 [Compound 153] | > 10000 nM |
| CC1CC2CCN(C(=O)CNc3cc(Cl)cc(Cl)c3)CC2N1c1ncnc2[nH]ccc12 (stereo not drawn) [Compound 74] | < 100 nM |
| CN1CCN(C(=O)c2cnc3[nH]ccc3c2N[C@@H]2CCCN(C(=O)CNc3cc(Cl)cc(Cl)c3)C2)CC1 [Compound 230] | 100 to 999 nM |
| CN(c1ncnc2[nH]ncc12)[C@H]1CCN(C(=O)CNc2cc(Cl)cc(Cl)c2)C1 [Compound 130] | > 10000 nM |
| CC1C(Nc2ncnc3[nH]ccc23)CCCN1C(=O)CNc1ccccc1S(=O)(=O)N1CCCC1 (stereo not drawn) [Compound 79] | < 100 nM |
| CN(C)C(=O)CN(c1ncnc2[nH]ccc12)[C@@H]1CCCN(C(=O)CNc2cc(Cl)cc(Cl)c2)C1 [Compound 40] | 100 to 999 nM |
| O=C(CNc1cc(Cl)cc(Cl)c1)N1CCC[C@H](Nc2cc(Br)ncc2[N+](=O)[O-])C1 [Compound 136] | > 10000 nM |
| C[C@@H]1[C@@H](Nc2ncnc3[nH]ncc23)CCCN1C(=O)CNc1cc(F)cc(Cl)c1 [Compound 24] | 1000 to 10000 nM |
| CCC1C(Nc2ncnc3[nH]ncc23)CCCN1C(=O)CNc1cc(F)cc(Cl)c1 (stereo not drawn) [Compound 4] | < 100 nM |
| CC1C(Nc2ncnc3[nH]ccc23)CCCN1C(=O)CNc1cc(F)cc(Cl)c1 (stereo not drawn) [Compound 71] | < 100 nM |
| CC1C(Nc2ncnc3[nH]ncc23)CCCN1C(=O)CNc1cc(F)cc(Cl)c1 (stereo not drawn) [Compound 68] | < 100 nM |

| Compound | IC50 |
| --- | --- |
| O=C(CNc1cc(Cl)cc(Cl)c1)N1CCCC(Nc2ncnc3[nH]ccc23)C1C1CCCC1 (stereo not drawn) [Compound 33] | < 100 nM |
| O=C1CCc2c(ncnc2N2CCC3CCN(C(=O)CNc4cc(Cl)cc(Cl)c4)CC32)N1 (stereo not drawn) [Compound 156] | 1000 to 10000 nM |
| O=C(CNc1cc(Cl)cc(Cl)c1)N1CCC2CCN(c3ncnc4[nH]cnc34)C2C1 (stereo not drawn) [Compound 111] | < 100 nM |
| O=C(CNc1cc(F)cc(Cl)c1)N1CCC[C@@H](Nc2ncnc3[nH]ncc23)C1 [Compound 216] | 100 to 999 nM |
| Nc1ncnc(N[C@H]2CCCN(C(=O)CNc3cc(Cl)cc(Cl)c3)C2)c1F [Compound 110] | 100 to 999 nM |
| CN(c1ncnc2[nH]ccc12)C1CCCN(C(=O)CNc2cc(Cl)cc(C(F)(F)F)c2)C1C(F)(F)F (stereo not drawn) [Compound 13] | < 100 nM |
| O=C(O)CN(c1ncnc2[nH]ccc12)[C@@H]1CCCN(C(=O)CNc2cc(Cl)cc(Cl)c2)C1 [Compound 36] | 1000 to 10000 nM |
| CC1CCCC(NCC(=O)N2CCC[C@H](Nc3ncnc4[nH]ccc34)C2)C1 (stereo partly drawn) [Compound 117] | > 10000 nM |
| O=C(CNc1cc(Cl)cc(Cl)c1)N1CCC[C@@H](Nc2ncnc3[nH]ccc23)[C@H]1C(F)(F)F [Compound 12] | < 100 nM |
| O=C(CNc1ccc(F)c(Cl)c1)N1CCC2CCN(c3ncnc4[nH]ccc34)C2C1 (stereo not drawn) [Compound 77] | < 100 nM |
| NC(=O)c1cnc2[nH]ccc2c1NC1CCCN(C(=O)NCc2cc(Cl)cc(Cl)c2)C1 (stereo not drawn) [Compound 224] | < 100 nM |
| O=C(CNc1ccccc1Cl)N1CCC[C@H](Nc2ncnc3[nH]ccc23)C1 [Compound 199] | > 10000 nM |
| O=C(CNc1cc(Cl)cc(Cl)c1)N1CCC[C@H](Nc2ncnc3[nH]ccc23)[C@@H]1C(F)(F)F [Compound 11] | 100 to 999 nM |
| CCC[C@@H](Nc1cc(Cl)cc(Cl)c1)C(=O)N1CCCC(Nc2ncnc3[nH]ccc23)C1C (stereo partly drawn) [Compound 64] | < 100 nM |
| CC1C(Nc2ncnc3[nH]ncc23)CCCN1C(=O)CNc1ccccc1S(=O)(=O)N1CCCC1 (stereo not drawn) [Compound 70] | < 100 nM |
| CN(c1ncnc2[nH]ccc12)[C@@H]1CCN(C(=O)CNc2cc(Cl)cc(Cl)c2)C1 [Compound 127] | 1000 to 10000 nM |
| O=C(CNc1ccccc1)N1CCCC(Nc2ncnc3[nH]ccc23)C1C(F)(F)F (stereo not drawn) [Compound 18] | 100 to 999 nM |
| O=C(CNc1cc(C(F)(F)F)cc(C(F)(F)F)c1)N1CCC[C@H](Nc2ncnc3[nH]ncc23)C1 [Compound 185] | 1000 to 10000 nM |
| O=C(CNc1cc(Cl)cc(Cl)c1)N1CC(Nc2ncnc3[nH]ncc23)Cc2ccccc21 (stereo not drawn) [Compound 191] | 100 to 999 nM |
| NC(=O)c1cnc2[nH]ccc2c1NC1CCCN(C(=O)CNc2cc(Cl)cc(Cl)c2)C1C(F)(F)F (stereo not drawn) [Compound 228] | < 100 nM |
| C[C@@H]1[C@H](Nc2ncnc3[nH]ncc23)CCCN1C(=O)CNc1ccccc1S(=O)(=O)N1CCCCC1 [Compound 22] | < 100 nM |
| O=C(CNc1cc(Cl)cc(Cl)c1)N1CCC[C@H](Nc2ncnc3scnc23)C1 [Compound 115] | > 10000 nM |
| O=C(CNc1cc(Cl)cc(C(F)(F)F)c1)N1CCCC(Nc2ncnc3[nH]ccc23)C1C(F)(F)F (stereo not drawn) [Compound 17] | < 100 nM |
| C[C@@H]1C[C@@H]2CCN(C(=O)CNc3cc(Cl)cc(Cl)c3)C[C@@H]2N1c1ncnc2[nH]ccc12 [Compound 46] | < 100 nM |

| Compound | IC50 |
| --- | --- |
| CC1C(Nc2ncnc3[nH]ncc23)CCCN1C(=O)[C@H](Nc1cc(Cl)cc(Cl)c1)C1CC1 (stereo partly drawn) [Compound 52] | < 100 nM |
| CC1C(Nc2ncnc3[nH]ncc23)CCCN1C(=O)CNc1ccccc1S(=O)(=O)C1CCCC1 (stereo not drawn) [Compound 69] | < 100 nM |
| CN(c1ncnc2c1CCC(=O)N2)[C@H]1CCCN(C(=O)CNc2cc(Cl)cc(Cl)c2)C1 [Compound 129] | > 10000 nM |
| COc1c(N)ncnc1N[C@H]1CCCN(C(=O)CNc2cc(Cl)cc(Cl)c2)C1 [Compound 168] | > 10000 nM |
| O=C(CNc1cc(Cl)cc(Cl)c1)N1CCC[C@@H](Nc2c(-c3ccc(C(=O)N4CCOCC4)cc3)cnc3[nH]ccc23)C1 [Compound 3] | < 100 nM |
| O=C(CNc1ccc(C(F)(F)F)cc1)N1CCC[C@H](Nc2ncnc3[nH]ccc23)C1 [Compound 204] | > 10000 nM |
| O=C(CNc1cc(Cl)cc(Cl)c1)N1CCC[C@H](N(CCc2ccccc2)c2ncnc3[nH]ccc23)C1 [Compound 119] | > 10000 nM |
| O=C(CNc1cccc(Cl)c1)N1CCC[C@H](Nc2ncnc3[nH]ncc23)C1 [Compound 201] | 1000 to 10000 nM |
| O=C(CNc1cc(Cl)cc(Cl)c1)N1CC2CC(Nc3ncnc4[nH]ncc34)C1C2 (stereo not drawn) [Compound 171] | < 100 nM |
| CC(=O)Nc1cc(NC2CCCN(C(=O)CNc3cc(Cl)cc(Cl)c3)C2)ncn1 (stereo not drawn) [Compound 85] | 1000 to 10000 nM |
| O=C(CNc1cccc(F)c1)N1CCC[C@H](Nc2ncnc3[nH]ccc23)C1 [Compound 188] | 1000 to 10000 nM |
| CCCN(CC(C)C)S(=O)(=O)c1ccccc1NCC(=O)N1CC[C@@H](C)[C@H](Nc2ncnc3[nH]ncc23)C1 [Compound 213] | > 10000 nM |
| CCCCC1C(Nc2ncnc3[nH]ccc23)CCCN1C(=O)CNc1cc(Cl)cc(Cl)c1 (stereo not drawn) [Compound 41] | 100 to 999 nM |
| CN1CCN(C(=O)c2ccc(-c3cnc4[nH]ccc4c3N[C@H]3CCCN(C(=O)CNc4cc(Cl)cc(Cl)c4)C3)cc2)CC1 [Compound 1] | < 100 nM |
| CC1C(Nc2ncnc3[nH]ncc23)CCCN1C(=O)[C@@H](C)Nc1cc(Cl)cc(Cl)c1 (stereo partly drawn) [Compound 60] | < 100 nM |
| NC(=O)c1c(N)ncnc1NC1CCCN(C(=O)CNc2cc(Cl)cc(Cl)c2)C1 (stereo not drawn) [Compound 82] | > 10000 nM |
| C[C@@H]1C[C@H](Nc2ncnc3[nH]ncc23)CN(C(=O)CNc2cc(Cl)cc(Cl)c2)C1 [Compound 103] | < 100 nM |
| CC(C)C1C(Nc2ncnc3[nH]ccc23)CCCN1C(=O)CNc1cc(Cl)cc(Cl)c1 (stereo not drawn) [Compound 34] | < 100 nM |
| O=C(CNc1ccc(Cl)cc1)N1CCC[C@H](Nc2ncnc3[nH]ncc23)C1 [Compound 184] | > 10000 nM |
| O=C(CNc1cc(Cl)cc(Cl)c1)N1CC[C@H](Nc2ncnc3[nH]ccc23)C1 [Compound 152] | > 10000 nM |
| CCC1CC2CCN(C(=O)CNc3cc(Cl)cc(Cl)c3)CC2N1c1ncnc2[nH]ccc12 (stereo not drawn) [Compound 42] | < 100 nM |
| CC(C)CN(CC(C)C)S(=O)(=O)c1ccccc1NCC(=O)N1CCC[C@H](Nc2ncnc3[nH]ccc23)C1 [Compound 219] | > 10000 nM |
| C[C@H]1[C@@H](Nc2ncnc3[nH]ncc23)CCCN1C(=O)CNc1ccccc1S(=O)(=O)N1CCCCC1 [Compound 21] | 1000 to 10000 nM |
| C[C@H]1[C@H](Nc2ncnc3[nH]ncc23)CCCN1C(=O)CNc1cc(Cl)cc(Cl)c1 [Compound 30] | 100 to 999 nM |
